Our source for the IC50 and Increase values is ChEMBL document CHEMBL1127164, “Dihydropyridine KATP potassium channel openers” (Bioorg Med Chem Lett, 1993).

What all share (type): functional
For assay [1], the species on record is Cavia porcellus. The assay can be described thus: The compound was tested for […] activity against guinea pig detrusor (bladder) strip mildly depolarized with 15 mM KCl.
The species entered for assay [2] is Cavia porcellus. The experiment in a line: The compound was tested for […] activity against guinea pig vascular tissue (portal vein) strip mildly depolarized with 15 mM KCl.
The species entered for assay [3] is Cavia porcellus. The experiment in a line: Tested for percent increase of efflux rate constant of 50 uM of compound using guinea pig detrusor.
Assay [4] is filed under the species Cavia porcellus. The assay can be described thus: The compound was tested for […] activity against guinea pig detrusor (bladder) strip contracted with 80 mM KCl.

Compound `N#Cc1ccc(C2C3=C(O)CCCC3=NC3=C2C(=O)CCC3)cc1C(F)(F)F` (stereo not drawn) came in with an IC50 in assay [1] of 420 nM. On to `O=C1CCCC2=C1C(c1ccc(-c3ccccc3)cc1)C1=C(O)CCCC1=N2` (stereo not drawn), for which, in assay [1], 1370 nM corresponded to half-maximal inhibition (IC50). In the case of `O=[N+]([O-])c1cccc(C2C3=C(CCCC3)N=C3CCCC(O)=C32)c1` (stereo not drawn), in assay [1], the IC50 turned out to be 510 nM. As to `O=C1CCCC2=C1C(c1ccc(F)c(Cl)c1)C1=C(O)CCCC1=N2` (stereo not drawn), 460 nM corresponded to half-maximal inhibition in assay [1] (IC50).

On to `CC1=CC(c2cccc([N+](=O)[O-])c2)C2=C(O)CCCC2=N1` (stereo not drawn), for which 660 nM corresponded to half-maximal inhibition in assay [1] (IC50).

Consider `O=C1CCCC2=C1C(c1cc([N+](=O)[O-])cs1)C1=C(O)CCCC1=N2` (stereo not drawn), for which the IC50 in assay [2] stood at 9 nM; in assay [1], 160 nM. `O=C1CCCC2=C1C(c1cccc([N+](=O)[O-])c1)C1=C(O)CCCC1=N2` (stereo not drawn) had an Increase in assay [3] of 30.7%. The IC50 in assay [2] was 100 nM; in assay [1], 4440 nM; in assay [4], 47800 nM. The compound `COC(=O)C1=C(C)NC(C)=C(C(=O)OCCCN2CCC(c3ccccc3)(c3ccccc3)CC2)[C@@H]1c1cccc([N+](=O)[O-])c1` [DEXNIGULDIPINE] showed an IC50 in assay [1] of over 30000 nM. `COC(=O)C1=C(C)NC(C)=C(C(=O)OCCCN2CCC(c3ccccc3)(c3ccccc3)CC2)[C@H]1c1cccc([N+](=O)[O-])c1` [NIGULDIPINE]: the IC50 in assay [1] is over 30000 nM.

The IC50 is the concentration needed to halve the response being measured. The low end stands for higher potency, the high end for lower potency.
